This is an account of results in ChEMBL document CHEMBL1201862, “PubChem BioAssay data set” (2004).

Some test systems named below: UACC-257; K562; SK-MEL-5; OVCAR-4; COLO 205; TK-10; Malme-3M; HCT-15; UACC-62; SNB-19; OVCAR-3; SK-OV-3; DU-145; PC-3; MDA-MB-435; SNB-75; NCI/ADR-RES; SF-539; NCI-H522.
Test in all cases: NCI anticancer screen, dose series, 48 h

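Results reflect a 48-hour exposure of cells in 96-well plates to compound at five concentrations. GI50 is the concentration that inhibits growth by half.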 Calls of active or inactive are those of the source. No stated cut-off is given here; in the data, active = GI50 up to about 1.1 µM and inactive = higher. Where a SMILES comes first, the peptide text is derived from it. The star is where a group is joined. OSu = O=C1CCC(=O)N1O*; OBn = c1ccc(CO*)cc1; Bn = c1ccc(C*)cc1 Where only a bound is given, the exact number is not on record here.

Turning to `O=C(O)CCC(NC(=O)c1ccc(CNc2nc3ccccc3nc2C(=O)O)cc1)C(=O)O` (stereo not given), the GI50 in the assay on UACC-257, with K562, in the assay with SK-MEL-5, with OVCAR-4, with COLO 205 and with TK-10 was > 100 µM (inactive) each time. Also, the GI50 in the assay with Malme-3M was > 100 µM (inactive); in the assay with HCT-15 it was above 100 µM; in the assay on UACC-62, > 100 µM (inactive); with SNB-19, > 100 µM (inactive); in the assay with OVCAR-3, > 100 µM (inactive); with SK-OV-3, > 100 µM (inactive). Further, the GI50 in the assay with DU-145, with PC-3, with MDA-MB-435, in the assay with SNB-75 and in the assay on NCI/ADR-RES was > 100 µM (inactive) each time.

As to `CC1CCC(=O)NCCCCC(=O)N1` (stereo not given), the GI50 with UACC-257, with K562, in the assay with SK-MEL-5, with OVCAR-4, in the assay on COLO 205 and in the assay on TK-10 was > 100 µM (inactive) in each case. The GI50 with SF-539, in the assay with Malme-3M, in the assay on UACC-62, in the assay with SNB-19, in the assay on NCI-H522 and in the assay with OVCAR-3 was > 100 µM (inactive) each time. In addition, the GI50 was > 100 µM (inactive) in the assay on SK-OV-3 and 43.3 µM (inactive) in the assay with SNB-75.

As to `CCOC(=O)c1cc2c(nc1N)-c1ncccc1CC2`, the GI50 in the assay on UACC-257 was 38.5 µM (inactive); with K562 it was 27 µM (inactive); in the assay on SK-MEL-5, 38.9 µM (inactive); with OVCAR-4, > 100 µM (inactive); in the assay with COLO 205, 31.5 µM (inactive); with TK-10, > 100 µM (inactive). Moreover, the GI50 in the assay with SF-539 was > 100 µM (inactive); in the assay with Malme-3M, > 100 µM (inactive); with HCT-15 it was 32 µM; with UACC-62 it was 58.1 µM (inactive); in the assay on SNB-19, 59.7 µM (inactive); in the assay with NCI-H522 it was 33.4 µM (inactive). Also, the GI50 was 18.5 µM (inactive) with OVCAR-3, 45.1 µM (inactive) with SK-OV-3 and > 100 µM (inactive) in the assay with SNB-75.

In the case of `CCCCN(CCCC)CC(O)c1cc(-c2ccc(C(F)(F)F)cc2)nc(-c2ccc(C(F)(F)F)cc2)c1` (stereo not given), the GI50 with UACC-257 was 49.3 µM (inactive); in the assay with K562, 76.2 µM (inactive); in the assay with OVCAR-4 it was > 100 µM (inactive); in the assay on COLO 205, 79.8 µM (inactive); with TK-10, > 100 µM (inactive); in the assay with SF-539, > 100 µM (inactive). Besides, the GI50 in the assay with Malme-3M is 44 µM (inactive); in the assay on HCT-15, 26.4 µM; in the assay on UACC-62, > 100 µM (inactive); with SNB-19 it was > 100 µM (inactive); in the assay on NCI-H522, 75.3 µM (inactive); in the assay with OVCAR-3, 94.8 µM (inactive). Further, the GI50 in the assay on SK-OV-3 was > 100 µM (inactive); in the assay with DU-145 it was > 100 µM (inactive); in the assay on PC-3, 55 µM (inactive); with MDA-MB-435, 59.6 µM (inactive); with SNB-75, 13.8 µM (inactive); in the assay on NCI/ADR-RES, > 100 µM (inactive).

Turning to `CCOC(=O)c1c(-c2ccc(OC)c(O)c2)c(C#N)c(=S)n(C2OC(CO)C(O)C(O)C2O)c1-c1ccccc1` (stereo not given), the GI50 is > 100 µM (inactive) in the assay on UACC-257; > 100 µM (inactive) in the assay on K562; > 100 µM (inactive) with SK-MEL-5; > 100 µM (inactive) with OVCAR-4; > 100 µM (inactive) in the assay with COLO 205; above 100 µM in the assay with HCT-15. Further, the GI50 with UACC-62, with SNB-19, in the assay with DU-145, in the assay on PC-3, with MDA-MB-435 and in the assay with NCI/ADR-RES was > 100 µM (inactive) each time.

For the molecule `c1csc(-c2nn3c(C45CC6CC(CC(C6)C4)C5)nnc3s2)c1`, the GI50 in the assay with UACC-257 is > 100 µM (inactive); with K562, > 100 µM (inactive); with SK-MEL-5, 93.3 µM (inactive); in the assay with OVCAR-4, > 100 µM (inactive); in the assay with COLO 205 it was > 100 µM (inactive); in the assay on SF-539 it was > 100 µM (inactive). Moreover, the GI50 with Malme-3M was > 100 µM (inactive); in the assay with HCT-15, above 100 µM; in the assay with UACC-62, > 100 µM (inactive); with SNB-19, > 100 µM (inactive); in the assay on NCI-H522, > 100 µM (inactive); in the assay with OVCAR-3, > 100 µM (inactive). Also, the GI50 in the assay with SK-OV-3, in the assay on DU-145, with PC-3, in the assay on MDA-MB-435, in the assay on SNB-75 and in the assay on NCI/ADR-RES was > 100 µM (inactive) throughout.

With `NC(=O)N/N=C(\Cc1nc2ccc(C(=O)c3ccccc3)cc2nc1O)C(=O)Nc1ccc(Br)cc1`, the GI50 in the assay on UACC-257, with K562, in the assay on SK-MEL-5, in the assay on OVCAR-4, in the assay on TK-10 and in the assay on SF-539 was > 100 µM (inactive) in each case. The GI50 in the assay with Malme-3M is > 100 µM (inactive); in the assay on HCT-15, above 100 µM; with UACC-62, > 100 µM (inactive); in the assay on SNB-19 it was > 100 µM (inactive); in the assay on NCI-H522, > 100 µM (inactive); in the assay with OVCAR-3 it was > 100 µM (inactive). In addition, the GI50 with SK-OV-3 and in the assay with SNB-75 was > 100 µM (inactive) throughout.

As for `Cc1ccc(S(=O)(=O)NC(=O)Nc2ccc(C(=O)O)c(O)c2)cc1`, the GI50 with K562, in the assay on SK-MEL-5, in the assay with OVCAR-4, with COLO 205, with TK-10 and in the assay on SF-539 was > 100 µM (inactive) throughout. Besides, the GI50 was > 100 µM (inactive) in the assay on Malme-3M; above 100 µM with HCT-15; > 100 µM (inactive) with UACC-62; > 100 µM (inactive) with SNB-19; > 100 µM (inactive) in the assay with OVCAR-3; > 100 µM (inactive) in the assay on SK-OV-3. In addition, the GI50 in the assay with DU-145, in the assay on PC-3, with MDA-MB-435, in the assay on SNB-75 and in the assay with NCI/ADR-RES was > 100 µM (inactive) each time.

As to `O=C(O)c1c[nH]cc1C(=O)O`, the GI50 in the assay with UACC-257, in the assay with K562, in the assay with SK-MEL-5, in the assay with OVCAR-4, in the assay with COLO 205 and in the assay on TK-10 was > 100 µM (inactive) each time. For the same molecule, the GI50 in the assay with SF-539 is > 100 µM (inactive); in the assay with Malme-3M, > 100 µM (inactive); in the assay with HCT-15, above 100 µM; in the assay with UACC-62 it was > 100 µM (inactive); in the assay with SNB-19, > 100 µM (inactive); in the assay on NCI-H522, > 100 µM (inactive). The GI50 is > 100 µM (inactive) in the assay on OVCAR-3, > 100 µM (inactive) with SK-OV-3 and 96.4 µM (inactive) in the assay on SNB-75.

Turning to `CN1CCCNCCN(CCc2ccccn2)CCCN(C)CC1`, the GI50 in the assay with UACC-257 is > 100 µM (inactive); with K562 it was > 44.9 µM (inactive); in the assay on SK-MEL-5 it was > 100 µM (inactive); in the assay with OVCAR-4, > 58.5 µM (inactive); in the assay on COLO 205, > 43.5 µM (inactive); with TK-10, > 100 µM (inactive). The GI50 in the assay with SF-539 was > 100 µM (inactive); in the assay with Malme-3M it was > 100 µM (inactive); in the assay with HCT-15, above 43.5 µM; with UACC-62, > 100 µM (inactive); in the assay with SNB-19 it was > 100 µM (inactive); with NCI-H522, > 100 µM (inactive). For the same molecule, the GI50 in the assay on OVCAR-3, in the assay with SK-OV-3 and in the assay on SNB-75 was > 100 µM (inactive) in each case.

For `COc1cc(/C=C(\OC(C)=O)c2ccc3c(c2)OCO3)cc(OC)c1OC`, the GI50 was 18.4 µM (inactive) in the assay with UACC-257; 25.5 µM (inactive) with K562; 11.8 µM (inactive) in the assay on SK-MEL-5; 18.3 µM (inactive) in the assay on OVCAR-4; 19.9 µM (inactive) with COLO 205; 26.6 µM (inactive) in the assay with TK-10. Moreover, the GI50 with SF-539 was 18 µM (inactive); in the assay with Malme-3M, 23 µM (inactive); in the assay with HCT-15, 16 µM; with UACC-62 it was 16.6 µM (inactive); in the assay with SNB-19 it was 28.2 µM (inactive); in the assay with NCI-H522, 13.5 µM (inactive). Besides, the GI50 is 18.3 µM (inactive) in the assay with OVCAR-3, 17.5 µM (inactive) with SK-OV-3 and 20.6 µM (inactive) in the assay with SNB-75.

Take `CCN(CCCl)CCNc1c2ccccc2nc2ccc(OC)cc12`: the GI50 was 1.52 µM (inactive) in the assay on UACC-257; 0.213 µM (active) in the assay on K562; 1.12 µM (active) in the assay on SK-MEL-5; 0.794 µM (active) in the assay with OVCAR-4; 0.136 µM (active) with COLO 205; 1.58 µM (inactive) in the assay with TK-10. For the same molecule, the GI50 in the assay with SF-539 was 0.502 µM (active); in the assay on Malme-3M it was 0.861 µM (active); in the assay with HCT-15, 0.731 µM; in the assay on UACC-62, 0.551 µM (active); in the assay with SNB-19, 1.41 µM (inactive); in the assay on NCI-H522, 0.33 µM (active). Also, the GI50 in the assay with OVCAR-3 was 1.38 µM (inactive); in the assay with SK-OV-3 it was 1.35 µM (inactive); with SNB-75, 0.966 µM (active); in the assay with NCI/ADR-RES, 1.35 µM (inactive).

For `CC(C)CC(NC(=O)C(N)CCC(=O)OCc1ccccc1)C(=O)NC(COCc1ccccc1)C(=O)NC(Cc1ccccc1)C(=O)ON1C(=O)CCC1=O` (stereo not given) (H-E(OBn)LS(Bn)F-OSu; configuration not given here), the GI50 is 28.3 µM (inactive) with UACC-257; 17.4 µM (inactive) in the assay with SK-MEL-5; 27.8 µM (inactive) with OVCAR-4; 26.7 µM (inactive) in the assay on TK-10; 29.2 µM (inactive) with Malme-3M; 26.1 µM (inactive) with UACC-62. The GI50 in the assay on SNB-19 is 30.5 µM (inactive); in the assay with NCI-H522 it was 18.5 µM (inactive); in the assay on SK-OV-3, 25.4 µM (inactive); with DU-145, 27.7 µM (inactive); in the assay on PC-3, 24.5 µM (inactive); in the assay with MDA-MB-435 it was 33 µM (inactive). In addition, the GI50 was 35.7 µM (inactive) in the assay on SNB-75 and 28.5 µM (inactive) in the assay with NCI/ADR-RES.
